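How tested: cells in 96-well plates exposed to compound for 48 hours at five concentrations. At the GI50, growth is halved.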 Active and inactive are the calls of the source. No stated cut-off is given here; in the data, active = GI50 up to about 1.1 µM and inactive = higher.
How the values were obtained:
Assay in all cases: NCI-60 cell line screen, 48 h
RPMI-8226 = test system: RPMI-8226
SNB-19 = test system: SNB-19
NCI-H460 = test system: NCI-H460
Hs-578T = test system: Hs-578T
SF-268 = test system: SF-268
Malme-3M = test system: Malme-3M
KM12 = test system: KM12
SF-539 = test system: SF-539
786-0 = test system: 786-0
SN12C = test system: SN12C
HCT-116 = test system: HCT-116
K562 = test system: K562
SF-295 = test system: SF-295
OVCAR-4 = test system: OVCAR-4
EKVX = test system: EKVX
T47D = test system: T47D
UACC-62 = test system: UACC-62
MDA-MB-435 = test system: MDA-MB-435
A549 = test system: A549
UO-31 = test system: UO-31

Measured: GI50

COc1cc(C(C[N+](=O)[O-])SC(C)=O)ccc1OCc1ccccc1 (stereo not given)
inactive: RPMI-8226 1.39 µM | SNB-19 8.24 µM | NCI-H460 8.95 µM | Hs-578T 3.31 µM | SF-268 6.14 µM | Malme-3M 12.3 µM | KM12 4.85 µM | SF-539 2.48 µM | 786-0 1.79 µM | SN12C 4.17 µM | HCT-116 4.13 µM | K562 1.38 µM | SF-295 2.9 µM | OVCAR-4 14.4 µM | EKVX 19.8 µM | T47D 20.5 µM | UACC-62 3.09 µM | MDA-MB-435 3.08 µM | A549 9.33 µM | UO-31 4.57 µM
